Measured values from US20250090629A1, “ALLEVIATING DRUG NEPHROTOXICITY” (The Trustees of Indiana University, priority 2021, published 2025).

Tests used:
[1] = tested on: uninephrectomy chronic kidney disease model in Munich Wister Fromter rats; test: Gentamicin induced nephrotoxicity in uninephrectomy chronic kidney disease rat model, with or without RAP; settings: for Urinary protein: CKD pretreatment baseline 221±40; for Serum Cr: daily gentamicin 100 mg/kg intraperitoneal with RAP 40 mg/kg intravenous, p<0.01 vs without RAP
Method: Rats with a Chronic Kidney Disease (CKD) background were given either saline or 40 mg/kg RAP. […] Serum creatinine, an indicator of renal function, was measured in both rat populations at day 0, 3, 4, 5, and 6.

[2] = tested on: fluid phase and Megalin mediated clathrin mediated endocytosis in S1 and non-S1 proximal tubule segments; test: Intra-vital 2-photon quantification of proximal tubule uptake of fluorescent endocytic markers after RAP or vehicle; type: in vivo, rat
[3] = tested on: fluid phase and Megalin mediated clathrin mediated endocytosis in S1 and non-S1 proximal tubule segments; test: as above; type: in vivo, rat; remark: listed apart in the source
Method: Rats were given either RAP or saline vehicle followed by a bolus containing a fluid phase endocytic marker (10,000 MW Cascade Blue Dextra, CB-dex) and a receptor mediated uptake marker (Texas Red Rat Serum Albumin, Rat Albumin). […] The results of this experiment are illustrated in FIG. 3. […] Ten minutes later, a bolus of Texas Red rat serum albumin (TR-RSA) and 10 kDa Cascade Blue dextran was given. […] Images collected from these studies at approximately 15, 30, and 60 minutes post initial infusion were quantified for TR-RSA and 10 kDa dextran uptake in either vehicle or RAP treated rats, in both S1 and non-S1 proximal tubule segments. Values were reported as normalized fluorescence, with the values normalized to the highest average value in the study group. […] The differences between vehicle and RAP treated were significant at all three time points studied and in both the S1 and non-S1 proximal tubule segments. […] The lower glomerular sieving coefficient of the RSA results in less RSA filtration and this a slower, protracted uptake that appears linear over time, with the S1 segment having the greatest accumulation.

[4] = normal rats, over 60 minutes, RAP 40 mg/kg intravenous
[5] = RAP vs saline vehicle, 15', 30', 60' post bolus, S1 and non-S1 segments, FIG. 3
[6] = S1 segment, 60 minutes post initial bolus infusion, RAP 40 mg/Kg, FIG. 4B

Substance	Urinary protein ([1]; gentamicin without RAP)	Serum creatinine (indicator of renal function), change over time ([1]; CKD rats, RAP 40 mg/kg plus gentamicin 100 mg/kg intraperitoneal daily for five days, day 0, 3, 4, 5, 6, FIG. 1)	Serum Cr ([1]; day 5)	Serum Cr ([1]; day 6)	24-hour creatinine clearance ([1]; gentamicin with RAP, CKD pretreatment baseline 0.91=0.22 ml/min)	Urinary protein ([1]; gentamicin with RAP)	Texas Red Gentamicin accumulation (average fluorescence intensity) ([2]; RAP 40 mg/kg vs saline vehicle, then single bolus of Texas Red Gentamicin, S1 and non-S1 proximal tubule segments, FIG. 2)	Reduction of S1 proximal tubule gentamicin uptake [2, 4]	10,000 MW Cascade Blue Dextran (CB-dex) proximal tubule uptake and accumulation [3, 5]	Texas Red Rat Serum Albumin proximal tubule uptake and accumulation [3, 5]	10 kDa dextran accumulation in single plane images [3, 6]	TR-RSA uptake in single plane images [3, 6]	Reduction of 10 kDa Cascade Blue dextran uptake vs vehicle ([3]; S1 segment, RAP 40 mg/Kg, FIG. 4C)	RSA uptake (normalized fluorescence) compared to vehicle treated rats ([3]; about 15, 30 and 60 minutes, both S1 and non-S1 proximal tubule segments, FIG. 4E, 4F)	Reduction of 10 kDa Cascade Blue dextran uptake vs vehicle ([3]; non-S1 proximal tubule segments, RAP 40 mg/Kg, FIG. 4D)	Reversibility of the reduction of S1 proximal tubule uptake ([3]; normal rats)	Reduction of S1 proximal tubule albumin uptake [3, 4]	Reduction of S1 proximal tubule dextran uptake [3, 4]	Nature of the inhibition of endocytosis ([3]; without causing lasting effects on kidney function)
gentamicin [reference compound]	2,512 mg/ml/100 μm wt	–	–	–	–	–	–	–	–	–	–	–	–	–	–	–	–	–	–
RAP: 39 kD protein, molecular chaperone for LDL receptor-related proteins such as Megalin; endocytosis inhibitor; SEQ ID NO 1-3 (human, rat, mouse)	–	did not exhibit the same increase in serum creatinine	1.4 ± 0.5 mg/dL	1.5 ± 0.5 mg/dL	0.49 ± 0.16 mL/min	488 mg/ml/100 μm wt	Decreased	62%	reduction	reduction	only faint accumulation	virtually no uptake	over 5 fold	significantly reduced	2 fold	rapid fully reversible	80%	67%	temporary and reversible
